Data published in US20260365677A1, “NEW CONTRAST AGENTS FOR USE IN DIAGNOSTIC IMAGING” (Bayer Aktiengesellschaft, priority 2022, published 2026).

What was measured:
[1] = molecular target: T1, OATP1B1 (Homo sapiens, UniProt Q9Y6L6); assay: Uptake into stable transfected OATP1B1 HEK 293 cells; type: cell-based; conditions: 100 μM, 40 min, relative to RC1 (Gd-EOB-DTPA)
T1 construct: expressed in transfected cells
T1 sequence (Q9Y6L6 1-691): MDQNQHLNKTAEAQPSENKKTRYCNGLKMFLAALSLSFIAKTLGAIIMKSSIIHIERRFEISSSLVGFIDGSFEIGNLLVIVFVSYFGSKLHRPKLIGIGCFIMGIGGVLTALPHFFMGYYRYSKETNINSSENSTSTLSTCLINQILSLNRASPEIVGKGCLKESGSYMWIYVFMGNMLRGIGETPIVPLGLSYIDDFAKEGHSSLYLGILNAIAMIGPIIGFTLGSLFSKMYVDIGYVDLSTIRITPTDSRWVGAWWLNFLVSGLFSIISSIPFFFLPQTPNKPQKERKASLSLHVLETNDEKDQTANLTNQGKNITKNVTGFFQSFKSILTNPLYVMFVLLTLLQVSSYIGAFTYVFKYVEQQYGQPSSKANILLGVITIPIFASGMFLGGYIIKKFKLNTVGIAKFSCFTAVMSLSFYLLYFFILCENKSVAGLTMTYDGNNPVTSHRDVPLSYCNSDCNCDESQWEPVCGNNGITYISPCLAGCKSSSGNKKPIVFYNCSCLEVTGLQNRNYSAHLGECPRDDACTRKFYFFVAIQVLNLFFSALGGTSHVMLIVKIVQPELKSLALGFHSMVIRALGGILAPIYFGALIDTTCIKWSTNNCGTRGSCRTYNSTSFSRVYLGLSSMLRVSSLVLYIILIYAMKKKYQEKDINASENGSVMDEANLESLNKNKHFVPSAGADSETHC
Protocol: Human stable transfected OATP1 B1 human embryonic kidney 293 cells (OATP1 B1 HEK 293, SLCO1B1, Entrez Gene ID: 10599) were used (Leonhardt M et al. Drug Metab Dispos. 2010 July; 38(7):1024-8). The following culture medium was used: 500 mL DMEM (Dulbecco's Modified Eagle Medium—high Glucose, D6429), 50 mL FCS (fetal bovine serum, Fa. Sigma, F7524), 5.8 mL G418 (Geneticin, Fa. Gibco 10131-027) and 5 mL Pen-Strep. (Penicillin-Streptomycin, Fa. Gibco, Ref 15140-122). Cryopreserved cells were shortly thawed in water bath and diluted in 10 mL warm culture medium (37 °C). After medium change the cells were grown for 3d in a 25 cm^2 cell culture flask. After 3 to 5d the cells were transferred into 75 cm^2 flasks. For the splitting the cells were incubated with 1.5 mL trypsin (Trypsin-EDTA (1×) 0.05%, Ref 25300-054 100 ml, Fa. Gibco) for 3-5 min in the incubator (37 °C, 5% CO2 and 95% oxygen). After centrifugation and washing with medium the cells were counted (50 μL cell suspension and 50 μL trypan blue (Trypan Blue Solution, 93595-50 ml, Fa. Fluka). Cells were cultured (1×10^5 cells/well) in poly-D-lysine coated 24-well plates (Fa. Corning, Ref: 354414) in 1.5 mL medium per well. After 48 h in the incubator the medium was changed and 1.5 mL/well sodium butyrate containing medium were added (40 mL culture medium plus 400 μL Na-Butyrate, Fa. Sigma Aldrich B5887-5G, 250 mg in 2.27 mL MilliQ water). After 24 h in the incubator the medium was vacuumed off and 1.5 mL transport buffer was added and incubated for 10 min. The transport buffer contains the following ingredients: 500 mL HBSS (Hank's balanced salt solution, Hyclone, SH30268.01), 5 mL HEPES buffer (4-(2-hydroxyethyl)-1-piperazine-ethanesulfonic acid, Gibco 15630-056) and 3.9 mL glucose (Sigma, G8270-100, 90 g/200 mL MilliQ water). All test items were prepared in transport buffer at a final concentration of 100 μM from stock solutions (180 to 500 mM concentration). The OATP1B1 HEK 293 cells were incubated with test solutions (test item in transport buffer 500 μL) for 40 min on a thermoshaker without shaking (PHMP, Fa. Grant Bio). Triplicates were performed for each test item. After incubation the cells were washed with 2 mL of cold PBS (+) buffer (Dulbeccos PBS+, Fa. Gibco). […] As a reference standard Gd-EOB-DTPA (gadoxetate) is used in the same well plate. The OATP1B1 HEK 293 uptake of the test compound is calculated relative to gadoxetate (resulting in the unit % of RC1).

[2] = Exploratory water solubility in 10 mM Tris-HCl buffer, pH 7.4; type: physicochemical; conditions: aqueous buffer (10 mM Tris-HCl), 20 °C
Protocol: The exploratory water solubility of the compounds is determined at room temperature (20 °C) in 0.5 mL buffer solution (10 mM Tris-HCl, pH 7.4) in the microcentrifuge tubes (Eppendorf, 2.0 mL safe-lock caps). The solid compounds were added stepwise to the buffer solution. More substance is added once all the suspended material is dissolved until an equilibrium between undissolved and dissolved substance is reached. The suspension was mixed using a shaker (Heidolph Reax 2000) and treated 5 min in an ultrasound bath (Bandelin, Sonorex Super RK255H). The Gadolinium concentration of the test substance in the clear solution is measured by ICP-MS.

[3] = No-observed-adverse-effect level (NOAEL) in mice; conditions: intravenous bolus injection

SMILES: COCCOCCOCCOc1ccc(C[C@H]2CN(CC(=O)[O-])CCN(CC(=O)[O-])CCN(CC(=O)O)CCN2CC(=O)[O-])cc1.[Gd+3] [Example 1, Gadolinium-2,2′,2″-[(2S)-10-(carboxymethyl)-2-(4-{2-[2-(2-methoxyethoxy)-ethoxy]ethoxy}benzyl)-1,4,7,10-tetraazacyclododecane-1,4,7-triyl]triacetate]
- Uptake into OATP1B1-HEK 293 cells [1]: 143 % of RC1
- Solubility [2]: >201 mM

SMILES: CCOCCOCCOc1ccc(C[C@H]2CN(CC(=O)[O-])CCN(CC(=O)[O-])CCN(CC(=O)O)CCN2CC(=O)[O-])nc1.[Gd+3] [Example 6, Gadolinium 2,2′,2″-[(2S)-10-(carboxymethyl)-2-({5-[2-(2-ethoxyethoxy)ethoxy]pyridin-2-yl}methyl)-1,4,7,10-tetraazacyclododecane-1,4,7-triyl]triacetate]
- Uptake into OATP1B1-HEK 293 cells [1]: 174 % of RC1

SMILES: CCOCCOCCOCCOc1ccc(C[C@H]2CN(CC(=O)[O-])CCN(CC(=O)[O-])CCN(CC(=O)O)CCN2CC(=O)[O-])cc1.[Gd+3] [Example 5, Gadolinium-2,2′,2″-[(2S)-10-(carboxymethyl)-2-(4-{2-[2-(2-ethoxyethoxy)ethoxy]ethoxy}benzyl)-1,4,7,10-tetraazacyclododecane-1,4,7-triyl]triacetate]
- Uptake into OATP1B1-HEK 293 cells [1]: 78 % of RC1
- Solubility [2]: >284 mM

SMILES: CCOCCOc1ccc(C[C@H]2CN(CC(=O)[O-])CCN(CC(=O)[O-])CCN(CC(=O)O)CCN2CC(=O)[O-])cc1.[Gd+3] [Example 4, Gadolinium-2,2′,2″-{(2S)-10-(carboxymethyl)-2-[4-(2-ethoxyethoxy)benzyl]-1,4,7,10-tetraazacyclododecane-1,4,7-triyl}triacetate]
- NOAEL [3]: 2.50 mmol Gd/kg bw
- Uptake into OATP1B1-HEK 293 cells [1]: 65 % of RC1
- Solubility [2]: >738 mM

SMILES: CCOCCOCCOc1ccc(C[C@H]2CN(CC(=O)[O-])CCN(CC(=O)[O-])CCN(CC(=O)O)CCN2CC(=O)[O-])cc1.[Gd+3] [Example 2, Gadolinium-2,2′,2″-[(2S)-10-(carboxymethyl)-2-{4-[2-(2-ethoxyethoxy)ethoxy]benzyl}-1,4,7,10-tetraazacyclododecane-1,4,7-triyl]triacetate]
- Uptake into OATP1B1-HEK 293 cells [1]: 282 % of RC1
- Solubility [2]: >55 mM

SMILES: CCCCOc1ccc(C[C@H]2CN(CC(=O)[O-])CCN(CC(=O)[O-])CCN(CC(=O)O)CCN2CC(=O)[O-])cc1.[Gd+3] (single isomer, unassigned; stereoisomer 2) [Example 13]
- Uptake into OATP1B1-HEK 293 cells [1]: 847 % of RC1
- Solubility [2]: >43 mM

SMILES: CCOc1ccc(CC2CN(CC(=O)[O-])CCN(CC(=O)[O-])CCN(CC(=O)O)CCN2CC(=O)[O-])cc1.[Gd+3] (single isomer, unassigned; diastereomer 2) [Example 9, Gadolinium-2,2′,2″-[10-(carboxymethyl)-2-(4-ethoxybenzyl)-1,4,7,10-tetraazacyclododecane-1,4,7-triyl]triacetate (racemic diastereomer 2)]
- Uptake into OATP1B1-HEK 293 cells [1]: 60 % of RC1
- Solubility [2]: >145 mM

SMILES: CCOc1ccc(C[C@H]2CN(CC(=O)[O-])CCN(CC(=O)[O-])CCN(CC(=O)O)CCN2CC(=O)[O-])cc1.[Gd+3] (single isomer, unassigned; stereoisomer 2) [Example 11]
- Uptake into OATP1B1-HEK 293 cells [1]: 96 % of RC1
- Solubility [2]: >146 mM

SMILES: COCCOCCOCCOc1ccc(C[C@@H]2CN(CC(=O)[O-])CCN(CC(=O)[O-])CCN(CC(=O)O)CCN2CC(=O)[O-])cc1.[Gd+3] [Example 3, Gadolinium-2,2′,2″-[(2R)-10-(carboxymethyl)-2-(4-{2-[2-(2-methoxyethoxy)ethoxy]ethoxy}benzyl)-1,4,7,10-tetraazacyclododecane-1,4,7-triyl]triacetate]
- Uptake into OATP1B1-HEK 293 cells [1]: 120 % of RC1
- Solubility [2]: >166 mM

SMILES: CCOc1ccc(CC2CN(CC(=O)[O-])CCN(CC(=O)[O-])CCN(CC(=O)O)CCN2CC(=O)[O-])cc1.[Gd+3] (centres unmarked) [Example 7, Gadolinium-2,2′,2″-[10-(carboxymethyl)-2-(4-ethoxybenzyl)-1,4,7,10-tetraazacyclododecane-1,4,7-triyl]triacetate]
- NOAEL [3]: 1.50 mmol Gd/kg bw
- Uptake into OATP1B1-HEK 293 cells [1]: 103 % of RC1
- Solubility [2]: >403 mM

SMILES: CCCCOc1ccc(C[C@H]2CN(CC(=O)[O-])CCN(CC(=O)[O-])CCN(CC(=O)O)CCN2CC(=O)[O-])cc1.[Gd+3] (single isomer, unassigned; stereoisomer 1) [Example 12]
- Uptake into OATP1B1-HEK 293 cells [1]: 119 % of RC1
- Solubility [2]: 211 mM

SMILES: CCOc1ccc(CC2CN(CC(=O)[O-])CCN(CC(=O)[O-])CCN(CC(=O)O)CCN2CC(=O)[O-])cc1.[Gd+3] (single isomer, unassigned; diastereomer 1) [Example 8, Gadolinium-2,2′,2″-[10-(carboxymethyl)-2-(4-ethoxybenzyl)-1,4,7,10-tetraazacyclododecane-1,4,7-triyl]triacetate (racemic diastereomer 1)]
- Uptake into OATP1B1-HEK 293 cells [1]: 208 % of RC1

SMILES: CCOc1ccc(C[C@H]2CN(CC(=O)[O-])CCN(CC(=O)[O-])CCN(CC(=O)O)CCN2CC(=O)[O-])cc1.[Gd+3] (single isomer, unassigned; stereoisomer 1) [Example 10]
- Uptake into OATP1B1-HEK 293 cells [1]: 212 % of RC1
- Solubility [2]: >23 mM
